According to BindingDB's records for doi:10.1124/jpet.103.049619 (University of Kansas, 2003):

Experiments:
Histamine H1 receptor [1] = molecular target: Histamine H1 receptor (Cavia porcellus, UniProt P31389)
Histamine H1 receptor [2] = molecular target: Histamine H1 receptor (Homo sapiens, UniProt P35367)
Chain of Histamine H1 receptor (Homo sapiens, UniProt P35367) (P35367 whole entry): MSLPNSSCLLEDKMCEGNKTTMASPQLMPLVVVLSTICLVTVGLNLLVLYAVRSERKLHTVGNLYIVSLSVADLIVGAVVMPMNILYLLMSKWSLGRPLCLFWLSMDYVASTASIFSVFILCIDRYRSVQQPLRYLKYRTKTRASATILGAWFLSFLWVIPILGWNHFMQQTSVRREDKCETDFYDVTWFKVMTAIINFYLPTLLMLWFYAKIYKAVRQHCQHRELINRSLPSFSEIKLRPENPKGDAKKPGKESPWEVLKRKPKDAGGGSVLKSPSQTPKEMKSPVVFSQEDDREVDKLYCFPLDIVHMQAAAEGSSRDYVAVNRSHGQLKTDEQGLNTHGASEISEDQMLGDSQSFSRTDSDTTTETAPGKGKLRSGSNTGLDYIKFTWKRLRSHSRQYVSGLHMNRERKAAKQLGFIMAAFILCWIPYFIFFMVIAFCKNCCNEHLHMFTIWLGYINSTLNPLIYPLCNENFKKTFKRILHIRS

Chain of Histamine H1 receptor (Cavia porcellus, UniProt P31389) (P31389 whole entry): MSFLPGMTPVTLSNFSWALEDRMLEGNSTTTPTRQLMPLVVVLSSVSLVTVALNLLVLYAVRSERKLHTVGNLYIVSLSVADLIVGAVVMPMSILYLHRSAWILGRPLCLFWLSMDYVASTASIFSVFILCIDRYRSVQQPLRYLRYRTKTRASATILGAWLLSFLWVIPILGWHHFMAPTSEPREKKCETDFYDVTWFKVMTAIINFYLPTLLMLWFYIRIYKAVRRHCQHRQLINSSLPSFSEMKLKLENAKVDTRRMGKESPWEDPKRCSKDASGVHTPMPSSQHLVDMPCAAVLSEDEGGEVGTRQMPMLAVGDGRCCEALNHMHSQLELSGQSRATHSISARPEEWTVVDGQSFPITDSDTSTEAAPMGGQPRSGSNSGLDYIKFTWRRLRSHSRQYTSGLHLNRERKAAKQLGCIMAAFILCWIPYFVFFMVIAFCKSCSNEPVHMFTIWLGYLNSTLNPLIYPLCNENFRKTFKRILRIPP

| Ki (Histamine H1 receptor [1]) [nM] | Ki (Histamine H1 receptor [2]) [nM] | SMILES |
| --- | --- | --- |
| 600 | 1780 | NCCc1c[nH]c(-c2cccc(Cl)c2)n1 [2-(3-Chlorophenyl)histamine] |
| 610 | 1760 | NCCc1c[nH]c(-c2cccc(I)c2)n1 [2-(3-Iodophenyl)histamine] |
| 700 | 2220 | NCCc1c[nH]c(-c2cccc(Br)c2)n1 [2-[2-(3-bromophenyl)-1H-imidazol-4-yl]ethan-1-amine] |
| 53.9 | 255 | N=C(NCCCc1c[nH]cn1)NCCC(c1cccc(Cl)c1)c1ccccn1 (stereo unspecified) [BU-E 47] |
| 1.15 | – | Cc1ccc(C(=CCN2CCCC2)c2ccccn2)cc1 [CAS_486-12-4] |
| 33.3 | 353 | NC(=NCCC(c1ccc(F)cc1)c1ccccn1)NCCCc1cnc[nH]1 (stereo unspecified) [CAS_65895] |
| 310 | 400 | CN(C)CCc1c[nH]c(CCC(c2ccccc2)c2ccccc2)n1 [N,N-Dimethyl-2-(3,3-diphenylpropyl)-1H-imidazole-4-(ethanamine)] |
| 290 | 370 | CNCCc1cnc(CCC(c2ccccc2)c2ccccc2)[nH]1 [N-Methyl-2-(3,3-diphenylpropyl)-1H-imidazole-4-(ethanamine)] |

| SMILES | Ki (Histamine H1 receptor [1]) [nM] | Ki (Histamine H1 receptor [2]) [nM] |
| --- | --- | --- |
| NCCc1nccs1 [2-(2-aminoethyl)thiazole] | 8490 | – |
